Here are results for 3 molecules from patent US20210186879A1, “TARGETED DELIVERY OF HYDROPHILIC DRUGS TO LUNG” (DOUBLE BOND PHARMACEUTICALS AB, priority 2016, published 2021).

What is called Solubility is the concentration that dissolves in the medium under given conditions.

Series [1] is described as follows: In vivo distribution of doxorubicin in lung and blood serum of Wistar rats. The following applies: 4 hours; for Blood serum DOX / Lung tissue DOX: 5 mg/kg i.v. single bolus, ± SD; for Blood serum Relative difference / Lung tissue Relative difference: relative to control CI-DOX (1). As to the method: (§1) For in vivo investigation both rats and rabbits were used: female Wistar rats 60-75 days old weighing 300 g±30 g and Californian breed male rabbits 75-90 days old weighing 2000 g±250 g were selected. […] Different doxorubicin containing formulations with a total doxorubicin dose 5 mg/kg were administered via a single bolus injection into the tail for rats and via a slow flow of 1 ml/min in the marginal ear vein for rabbits.
(§2) Five or six pieces of lung tissue of a total weight of about 1 g were taken from different parts of a lung. The samples were homogenized with a solution of aqueous ethanol containing HCl for 20 s at 7000 rpm and for 10 s at 11000 rpm. […] Doxorubicin and doxycycline (DOC) concentration in the final supernatant was determined with fluorometric analysis and high-performance liquid chromatography respectively.
An aqueous solution of doxorubicin hydrochloride, an aqueous suspension of doxorubicin alkane sulfate and an aqueous suspension of doxorubicin alkyl sulfonate were administered via a single bolus injection into the tail Animals were sacrificed after 4 hours after administered via a single bolus injection into the tail; total doxorubicin dose 5 mg/kg. […] The results are summarized in Table 7 and illustrated in FIG. 10.

Series [2] is described as follows: In vivo distribution of doxorubicin in lung and femoral muscle of Californian rabbits. As to conditions: 4 hours; for Femoral muscle DOX / Lung tissue DOX: 1.25 mg/kg i.v. marginal ear vein, ± SD; for Femoral muscle Relative difference / Lung tissue Relative difference: relative to control CI-DOX (1). The protocol: as §1, §2
Suspension of complexes of doxorubicin and doxorubicin hydrochloride were administered via a slow flow of 1 ml/min to rabbits in the marginal ear vein with a total doxorubicin dose 1.25 mg/kg. Animals were sacrificed after 4 hours after administration. Concentration of doxorubicin in lung and femoral muscle was determined in accordance to the procedure described above. As it is seen from table 8 the concentration of doxorubicin in femoral muscle as a representation of a system concentration is not increased for complexes compared with doxorubicin hydrochloride.

The conditions of series [3]: rat, in vivo, iv, 5 mg/kg.
Series [4] can be described thus: Solubility in aqueous ethanol (UV method). Type of series: physicochemical. The following applies: for Solubility in 30% ethanol: doxorubicin salts. As to the method: The mixture was centrifuged at 3000 rpm for 10 min and the supernatant filtered through a 0.2 micrometer filter to remove aggregates of undissolved solid product. The solubility of the compound was determined by a UV method. Particle size analysis was accomplished by laser diffraction method.

The conditions of series [5]: cited from earlier work.

As to `CCCCCCCCCCCCCCOS(=O)(=O)O.COc1cccc2c1C(=O)c1c(O)c3c(c(O)c1C2=O)CC(O)(C(=O)CO)CC3OC1CC(N)C(O)C(C)O1` (stereo not drawn) [doxorubicin CnH2n+1OSO3^− n=14], in series [1], the “Blood serum DOX” value stood at 0.023 ± 0.009 µg/kg, the “Lung tissue DOX” value was determined as 3.17 ± 0.33 µg/kg, the “Blood serum Relative difference” value is on record as 1.21 and the “Lung tissue Relative difference” value worked out at 4.46. Moreover, in series [2], the “Femoral muscle DOX” value amounted to 0.06 ± 0.01 µg/kg, the “Lung tissue DOX” value is 6.14 ± 0.53 µg/kg, the “Femoral muscle Relative difference” value is recorded as 0.26 and the “Lung tissue Relative difference” value was determined as 7.40. Moreover, the “Particle size particularly advantageous in targeting lung tissue” value in series [3] is listed as 40-90 μm.

Regarding `CCCCCCCCCCCCCCCCS(=O)(=O)O.COc1cccc2c1C(=O)c1c(O)c3c(c(O)c1C2=O)CC(O)(C(=O)CO)CC3OC1CC(N)C(O)C(C)O1` (stereo not drawn) [doxorubicin CnH2n+1SO3^− n=16], the Solubility in series [4] (doxorubicin alkyl sulfates and alkane sulfonates, 30% ethanol (v/v)) turned out to be 11.94 µg/mL. In addition, in series [4] (Table 7), the “Solubility in 30% ethanol” value is given as 0.012. In addition, the “Solubility in 30% ethanol” value in series [4] (Table 8) was determined as 0.0119. For the same molecule, in series [1], the “Blood serum DOX” value came out at 0.019 ± 0.007 µg/kg, the “Lung tissue DOX” value was 6.11 ± 0.75 µg/kg, the “Blood serum Relative difference” value was determined as 1.04 and the “Lung tissue Relative difference” value was determined as 8.61. Further, in series [2], the “Femoral muscle DOX” value amounted to 0.12 ± 0.06 µg/kg, the “Lung tissue DOX” value turned out to be 10.70 ± 0.77 µg/kg, the “Femoral muscle Relative difference” value is 0.52 and the “Lung tissue Relative difference” value was 12.89.

Take `COc1cccc2c1C(=O)c1c(O)c3c(c(O)c1C2=O)C[C@@](O)(C(=O)CO)C[C@@H]3O[C@H]1C[C@H](N)[C@H](O)[C@H](C)O1` [doxorubicin]: in series [5], the “Cumulative dose at which the risk of developing cardiac side effects increases dramatically” value is listed as at least 550 mg/m^2.
